Test results published in US11491127B2, “Therapeutic use of compounds” (UCL BUSINESS LTD, priority 2010, dated 2022).

How the values were obtained:
[1] = system: self-sustaining status epilepticus in Sprague Dawley rats; assay: In vivo status epilepticus (perforant path stimulation); parameters: species or system rat; conditions: for effectiveness in status epilepticus model: previously found by the inventors
Protocol: This method has been described in detail previously (Walker et al., 1999). In brief, male Sprague Dawley rats […] were anesthetized with 1-2% isoflurane in O2. An earth electrode was positioned subcutaneously, and a monopolar recording electrode was implanted stereotactically into the right hippocampus (coordinates, 2.5 mm lateral and 4 mm caudal from bregma). A bipolar stimulating electrode was implanted in the right hemisphere and advanced into the angular bundle (coordinates, 4.4 mm lateral and 8.1 mm caudal from bregma) to stimulate the perforant path. The depths of the electrodes were adjusted to maximize the slope of the dentate granule cell field potential (Guo et al., 1999). The electrodes were held in place with dental acrylic and skull screws. The animals were allowed to recover from anaesthesia. Seven days later, the perforant path was electrically stimulated with 4-5 mA 50 μsec monopolar pulses at 20 Hz for 2 hr; this induced self-sustaining status epilepticus. After 10 min of self-sustaining status epilepticus, compounds or vehicle were administered and the behavioural seizures and EEG were monitored for 3 hours. At this point diazepam (10 mg/kg) was administered to all animals to stop the status epilepticus. Groups were compared by ANOVA followed by post-hoc testing using Tukey test, using SPSS.

[2] = system: inositol levels in Dictyostelium cells; assay: Inositol levels in treated Dictyostelium cells; assay type: cell-based, Dictyostelium discoideum; conditions: time period causing phosphoinositide attenuation (9 min)
Protocol: Following a 6 min incubation, labelling solution was removed and cells were lysed in acidified methanol and phospholipids were separated as previously detailed (Williams et al., 1999). Phospholipid labelling was quantified using a Typhoon phosphor-imager. Even loading was determined using total lipid stain with copper sulphate. Inositol levels were measured from five hour developed cells (similar to phospholipid labelling), following lyophilisation, as previously described (Maslanski & Busa, 1990).

[3] = system: fatty acid CoA activation in Dictyostelium cell extracts; assay: Fatty acid activation (palmitic acid to PaA-CoA) in cell extracts; assay type: biochemical, Dictyostelium discoideum; conditions: VPA 1.0 mM with cell extracts or 10 min, 1 mM pre-treatment of cells
Protocol: Screening of a REMI library was carried out as previously described (Kuspa & Loomis, 2006) using A×2 background, with VPA resistant mutants selected for the ability to develop in the presence of 1 mM VPA on R. planticola. Identification of the ablated gene, enabled the identified PLAa (DDB_G0278525; SEQ ID NO: 16) to be recapitulated using by homologous recombination of a knockout cassette. Primers used for amplifying region within the open reading frame of the gene were (5′ […] (SEQ ID NO: 17) and 3′ […] (SEQ ID NO: 18), cloned by pCR2.1 TOPO (Invitrogen Ltd)), cloned into pUC19 using EcoRI digestion, and Sinai digested fragment from pBLPblp (Falx et al, 2004) was inserted into the EcoRV site of the insert. Genetic ablation was confirmed by PCR analysis. Developmental resistance to VPA was assessed by plating cells (1×10^6) on 47 mm nitrocellulose filters (Millipore) soaked in phosphate buffer containing either 1 mM VPA or control, and development was recorded after 30 h unless otherwise stated. Development images were observed using a Leica CLS 150× microscope and images recorded using QICAM FAST 1394 camera. Fatty acid activation was determined by the method established by Wilson et al. (Wilson et al, 1982) with slight modifications. […]

SMILES: CCCC(CCC)C(=O)O [VPA, 2-propylpentanoic acid, reference compound]
- seizure control in words ([1]; 400 mg/kg, 3 hour test period): strongly attenuated seizures
- animals in which seizures completely stopped ([1]; 400 mg/kg, after 2 hours, 7 animals per group): did not terminate the seizures in any
- spike amplitude ([1]; 400 mg/kg, first hour): 75.2±9.2%
- spike amplitude ([1]; 400 mg/kg, second hour): 61.1±8.3%
- spike amplitude ([1]; 400 mg/kg, third hour): 55.1±6.6%
- effectiveness in status epilepticus model ([1]; high dose 600 mg/kg): effective
- effectiveness in status epilepticus model ([1]; lower dose 400 mg/kg): partial effectiveness
- reduction in inositol levels [2]: no significant reduction
- effect on fatty acid activation (PaA-CoA) [3]: no effect
